# Measured values from US20060167026A1, “Antipsychotic molecular-targeting epithelial growth factor receptor” (Hiroyuki Nawa, priority 2003, published 2006).
# What was measured:
# [1] = system: rats to which EGF was administered as neonates (model for cognitive dysfunction); experiment: prepulse inhibition of acoustic startle in rats to which EGF was administered as neonates; assay type: in vivo, rat
# Description: Newborn Sprague-Dawley (SD) rats were purchased from SLC (Shizuoka, Japan). Recombinant human EGF (Higeta-Syoyu Co, Chiba Japan) and cytochrome c (Sigma Chemical Co; control) were dissolved in physiologic saline. These agents were administered subcutaneously to rat pups on postnatal days 2, 4, 6, 8, and 10 at the nape of the neck at a dose of 1.75 μg of 1 g body weight).
# Acoustic startle amplitudes and PPI responses were measured in a startle reaction chamber for small animals (SR-Lab Systems, San Diego Instruments, San Diego, Calif.) from postnatal week 3. Acoustic startle was induced with acoustic stimuli (120 dB), in combination with three different prepulse intensities of 5-, 10-, and 15-dB-above background noise (75, 80, 85 dB). The 120 dB pulse was followed 100 ms after one of the prepulses was given. Each rat was placed in the startle chamber and initially acclimatized for 5 min with background noise alone. Prepulse inhibition (PPI) of a startle response was calculated as: 100−[(startle response on prepulse pulse stimulus trials−no stimulus trials)/(pulse alone trials−no stimulus trials)×100].
# SD rats treated with EGF or cytochrome c (control) were tested on postnatal days 56-66. […] The same concentration of DMSO solution was used as a control.
# After anesthesia, a 28 gauge cannula was inserted into the site of rat skull (0.3 mm anterior and 1.2 mm right lateral measured from the bregma, 4.5 mm below the skull) and glued to the skull with dental cement. The end of cannula was connected to an osmotic minipump (250 μl, effective for 14 days model 2002; Azla Corp.) via vinyl tubing. Pumps were implanted subcutaneously in the nape of the neck. […] The scalp incision was closed with surgical suture and staples, and rats were maintained to wait recovery from the operation.
# Seven days after administration, prepulse inhibition of the rats was monitored with 85 dB prepulse intensity using the acoustic startle measurement chamber for small animals (SR-Lab Systems, San Diego Instruments, San Diego, Calif.).
# [2] = system: rat model for cognitive dysfunction (EGF administered to neonatal rats); experiment: latent inhibition in two-way active avoidance, neonatally EGF-treated rat model; assay type: in vivo
# Description: The rat model for cognitive/behavioral dysfunction was prepared as EGF was administered to neonatal rats as described in the method of Experiment 1. SD rats were subjected to the two-way active avoidance task in an automated shuttle box (Muromachi-kiki, Tokyo, Japan) on postnatal weeks 6-8. The conditioned stimulus (CS) was an 80-dB tone and house light on and off. Rats learned the following task: When the CS was on, the animals had to cross to the other side of the shuttle box apparatus (avoidance response) in order to turn the CS off and avoid the appearance of the unconditioned stimulus (US). […] Rats were given 6 sessions of two-way active-avoidance conditioning (10 trials per session)(total 60 trials). Active-avoidance learning was evaluated by scoring the number of avoidance rate to CS.
# Before this learning test was conducted, the CS of an 80-dB tone and house light had been given to normal rats without delivering US (pre-conditioning), following avoidance learning was impaired in these rats (FIG. 5 top; open circle). This is latent inhibition that represents the effect of the pre-exposure of a conditioned stimulus (CS, e.g. tone), preventing the learning of unconditioned stimulus (Russig H et al. Neuropsychopharmacology 26: p 765-777 (2002)).
# When the rat model for cognitive/behavioral dysfunction, which is described in the Experiment 1, was exposed to the pre-conditioning. […] Such persistency can be inducible with hallucinogens such as cocaine (Murphy, C. A. et al. Behav Pharmacol. 12:p 13-23 (2001)).
smiles,measurement,setting,value
"COc1cc2ncnc(Nc3ccc(F)c(Cl)c3)c2cc1OCCCN1CCOCC1 [Compound B, 4-(3-chloro4-fluoroanilino)-7-methoxy-6-(3-morphorinopropoxy) quianozoline]",difference in prepulse inhibition between treated model rats and control animals,"[1]; EGF model rats, intraventricular minipump 1 mg/ml, day 7, 85 dB prepulse",no significant differences
same,effect on abnormal decrease in prepulse inhibition,"[1]; EGF model rats, intraventricular osmotic minipump 1 mg/ml, seven days after administration, 85 dB prepulse, compared to solvent-injected group",significantly ameliorated the abnormal decrease in prepulse inhibition
same,effect on prepulse inhibition in normal control rats,"[1]; normal control rats, intraventricular minipump 1 mg/ml, day 7, 85 dB prepulse",had no effects in prepulse inhibition
same,learning ability of treated model rats relative to normal controls,"[2]; EGF model rats, pre-conditioned, two-way active avoidance",indistinguishable from that of normal controls
same,effect on abnormal increase in latent inhibition,"[2]; EGF model rats, pre-conditioned, two-way active avoidance, intraventricular minipump",significantly exert an ameliorative effect on abnormal increase in latent inhibition
same,learning ability in conditioned avoidance learning,"[2]; both normal control rats and model rats, after administration",exhibited better learning ability
